Test results taken from patent US6413947B1, “Anilide derivative, production and use thereof” (Takeda Chemical Industries, Ltd., priority 1997, dated 2002).
Counter-ions that a name gives are not always drawn.

melting point | Structure (SMILES)
262 °C (dec.) | Cc1ccc(-c2ccc3c(c2)C=C(C(=O)Nc2ccc(-c4ccc[n+]([O-])c4)cc2)CCO3)cc1 [Compound 165, N-[4—(1-oxidopyridin-3-yl)phenyl]-7—(4-methylphenyl)-2,3-dihydro-1-benzoxepine-4-carboxamide]
121 to 122 °C | COCCN(C)Cc1ccc(NC(=O)C2=Cc3cc(-c4ccc(C)cc4)ccc3OCC2)cc1 [Compound 314, N-(4-((N-(2-methoxyethyl)-N-methylamino)methyl)phenyl)-7-(4-methylphenyl)-2,3-dihydro-1-benzoxepine-4-carboxamide]
176 to 177 °C | Cc1ccc(-c2ccc3c(c2)C=C(C(=O)Nc2ccc(CSc4ccccc4)cc2)CCO3)cc1 [Compound 82, 7—(4-methylphenyl)-N-(4—(phenyl-thiomethyl)phenyl)-2,3-dihydro-1-benzoxepine-4-carboxamide]
187 to 188 °C | CN(Cc1ccc(NC(=O)C2=Cc3cc(-c4ccc(OC(F)(F)F)cc4)ccc3OCC2)cc1)C1CCOCC1 [Compound 186, N-[4-[N-methyl-N-(tetrahydropyran-4-yl)aminomethyl]phenyl]-7—(4-trifluoromethoxyphenyl)-2,3-dihydro-1-benzoxepine-4-carboxamide]
172 to 174 °C | CCOc1ccc(-c2ccc3c(c2)C=C(C(=O)Nc2ccc(CN(C)C4CCC5(CC4)OCCO5)cc2)CCO3)cc1 [Compound 287, 7-(4-ethoxyphenyl)-N-[4-[N-(4,4-ethylenedioxycyclohexyl)-N-methylaminomethyl]-phenyl]-2,3-dihydro-1-benzoxepine-4-carboxamide]
240 to 241 °C | CCP(=O)(CC)Cc1ccc(NC(=O)C2=Cc3cc(-c4ccc(C)cc4)ccc3OCC2)cc1 [Compound 163, N-(4-diethylphosphorylmethylphenyl)-7—(4-methylphenyl)-2,3-dihydro-1-benzoxepine-4-carboxamide]
187.5 to 188.5 °C | CN1CCC(C(=O)Nc2ccc(CN(C)C3CCOCC3)cc2)=Cc2cc(-c3ccc(C(F)(F)F)cc3)ccc21 [Compound 308, 1-methyl-N-[4-[[N-methyl-N-(tetrahydropyran-4-yl)amino]-methyl]phenyl]-7-(4-trifluoromethylphenyl)-2,3-dihydro-1-benzoazepine-4-carboxamide]
197 to 198 °C | CCP(=O)(CC)Cc1ccc(NC(=O)/C=C/c2cccc(-c3ccc(C)cc3)c2)cc1 [Compound 187, (E)-N-(4-diethylphosphorylmethylphenyl)-3—(4-methylphenyl)cinnamamide]
202 to 204 °C | CN1CCC(C(=O)Nc2ccc(CN(C)C3CCOCC3)cc2)=Cc2cc(-c3ccc(N4CCCCC4)cc3)ccc21 [Compound 316, 1-methyl-N-[4-[[N-methyl-N-(tetrahydro-2H-pyran-4-yl)amino]methyl]-phenyl]-7-[4-(1-piperidinyl)phenyl]-2,3-dihydro-1-benzazepine-4-carboxamide]
128 to 132 °C | COCC(COC)N(C)Cc1ccc(NC(=O)C2=Cc3cc(-c4ccc(C)cc4)ccc3OCC2)cc1 [Compound 313, N-(4-((N-(1,3-dimethoxypropan-2-yl)-N-methylamino)methyl)phenyl)-7-(4-methylphenyl)-2,3-dihydro-1-benzoxepine-4-carboxamide]
152 to 153 °C | O=C(Nc1cccc(CN2CCCCC2)c1)C1=Cc2cc(-c3ccccc3)ccc2CC1 [Compound 217, 7-phenyl-N-[3—(piperidinomethyl)phenyl]-3,4-dihydronaphthalene-2-carboxamide]
175 to 176 °C | O=C(Nc1ccc(CN2CCCCC2)cc1)C1=Cc2cc(-c3ccc(F)cc3)ccc2CC1 [Compound 15, 7—(4-fluorophenyl)-N-[4—(piperidinomethyl)phenyl]-3,4-dihydronaphthalene-2-carboxamide]
166 to 167 °C | O=C(C=Cc1cccc(-c2ccc(F)cc2)c1)Nc1ccc(CN2CCCCC2)cc1 [Compound 83, 1—(4—(3—(4-fluoro-phenyl)cinnamoylamino)benzyl)piperidine]
200 to 204 °C | CCOc1ccc(-c2ccc3c(c2)C=C(C(=O)Nc2ccc(C[N+](C)(C)C4CCOCC4)cc2)CCO3)cc1 (as salt: chloride) [Compound 250, N-(4-(((7-(4-ethoxyphenyl)-2,3-dihydro-1-benzoxepin-4-yl)carbonyl)amino)benzyl)-N,N-dimethyl-N-(4-tetrahydropyranyl)ammonium chloride]
176 to 178 °C | Cc1ccc(-c2cccc(/C=C/C(=O)Nc3ccc(C[N+]4(C)CCCCC4)cc3)c2)cc1 (as salt: iodide) [Compound 72, (E)-1-methyl-1-[4—(3—(4-methylphenyl)cinnamamido)benzyl]-piperidinium iodide]
162 to 163 °C | Cc1ccc(-c2ccc3c(c2)C=C(C(=O)Nc2ccc(C(=O)C4CCCCN4C)cc2)CCO3)cc1 (stereo not shown)
182 to 184 °C | CN(C)Cc1ccc(NC(=O)C2=Cc3cc(-c4ccccc4)ccc3CC2)cc1 [Compound 6, N-[4—(dimethylaminomethyl)-phenyl]-7-phenyl-3,4-dihydro-naphthalene-2-carboxamide]

melting point | Structure (SMILES)
137 to 139 °C | Cc1ccc(-c2cccc(/C=C/C(=O)Nc3ccc(CN4CCCCC4CO)cc3)c2)cc1 (stereo not shown) [Compound 68, (E)-N-[4-[2—(hydroxy-methyl)piperidinomethyl]phenyl]-3—(4-methylphenyl)cinnamamide]
210 to 211 °C | CN(Cc1ccc(NC(=O)C2=Cc3cc(-c4ccc(N5CCCC5)cc4)ccc3OCC2)cc1)C1CCOCC1 [Compound 150, 7—(4—(pyrrolidin-1-yl)phenyl)-N-(4—((N-tetrahydropyran-4-yl-N-methylamino)-methyl)phenyl)-2,3-dihydro-1-benzoxepine-4-carboxamide]
187 to 189 °C | CC(C)c1ccc(-c2ccc(/C=C/C(=O)Nc3ccc(CN(C)C4CCOCC4)cc3)s2)cc1 [Compound 274, (E)-3-[5-(4-isopropylphenyl)thiophen-2-yl]-N-[4-[N-methyl-N-(tetrahydropyran-4-yl)aminomethyl]-phenyl]acrylamide]
212 to 213 °C | Cc1ccc(-c2ccc3c(c2)C=C(C(=O)Nc2ccc(C(O)CN4CCCCC4)cc2)CCO3)cc1 (stereo not shown) [Compound 145, N-(4—(1-hydroxy-2-piperidinoethyl)phenyl)-7—(4-methylphenyl)-2,3-dihydro-1-benzoxepine-4-carboxamide]
216 to 220 °C | CN(Cc1ccc(NC(=O)/C=C/c2ccc(-c3ccc(C(C)(C)C)cc3)s2)cc1)C1CCOCC1 [Compound 276, (E)-3-[5-(4-tert-butylphenyl)thiophen-2-yl]-N-[4-[N-methyl-N-(tetrahydropyran-4-yl)aminomethyl]phenyl]acrylamide]
162 to 163 °C | CN(C)c1ccc(-c2ccc3c(c2)C=C(C(=O)Nc2ccc(CP4(=O)CCCCC4)cc2)CCO3)cc1.Cl
194 to 195 °C | CN(Cc1ccc(NC(=O)C2=Cc3cc(-c4ccsc4)ccc3OCC2)cc1)C1CCOCC1 [Compound 291, N-[4-[N-methyl-N-(tetrahydropyran-4-yl)aminomethyl]phenyl]-7-(3-thienyl)-2,3-dihydro-1-benzoxepine-4-carboxamide]
198 to 200 °C | Cc1ccc(-c2cccc(/C=C/C(=O)Nc3ccc(Cn4ccnc4)cc3)c2)cc1 [Compound 65, (E)-N-[4-[(imidazol-1-yl)methyl]phenyl]-3—(4-methylphenyl)cinnamamide]
255 to 259 °C | CN(Cc1ccc(NC(=O)C2=Cc3cc(-c4ccc(N5CCOCC5)cc4)ccc3SCC2)cc1)C1CCOCC1 [Compound 285, N-[4-[N-methyl-N-(tetrahydropyran-4-yl)aminomethyl]phenyl]-7-(4-morpholinophenyl)-2,3-dihydro-1-benzothiepine-4-carboxamide]
165 to 167 °C | Cc1ccc(-c2cccc(/C=C/C(=O)Nc3ccc(C(O)c4cccc[n+]4[O-])cc3)c2)cc1 (stereo not shown) [Compound 80, (E)-N-[4-[hydroxy(1-oxido-2-pyridyl)methyl]-phenyl]-3—(4-methylphenyl)cinnamamide]
202 to 205 °C | COc1ccccc1N1CCN(Cc2ccc(NC(=O)C3=Cc4cc(-c5ccc(C)cc5)ccc4CC3)cc2)CC1 [Compound 41, N-[4-[1—(2-methoxyphenyl)-4-piperazinylmethyl]phenyl]-7—(4-methylphenyl)-3,4-dihydronaphthalene-2-carboxamide]
157 to 158 °C | Cc1ccc(-c2ccc3c(c2)C=C(C(=O)Nc2ccc(CNc4ccccc4)cc2)CCO3)cc1 [Compound 115, N-(4—((phenylamino)methyl)phenyl)-7—(4-methylphenyl)-2,3-dihydro-1-benzoxepine-4-carboxamide]
254 °C (dec.) | Cc1ccc(-c2ccc3c(c2)C=C(C(=O)Nc2ccc(Cc4c(O)ccc[n+]4[O-])cc2)CCO3)cc1 [Compound 175, N-[4—(1-oxido-3-hydroxypyridin-2-ylmethyl)phenyl]-7—(4-methylphenyl)-2,3-dihydro-1-benzoxepine-4-carboxamide]
212 to 214 °C | Cc1ccc(-c2ccc3c(c2)C=C(C(=O)Nc2ccc(CNc4cccnc4)cc2)CC3)cc1 [Compound 47, 7—(4-methylphenyl)-N-[4-[N-(3-pyridyl)aminomethyl]phenyl]-3,4-dihydronaphthalene-2-carboxamide]
293 to 294 °C (dec.) | CN(C)c1ccc(-c2ccc3c(c2)C=C(C(=O)Nc2ccc(CP4(=O)CCCCC4)cc2)CCO3)cc1 [Compound 154, 7—(4-dimethylaminophenyl)-N-(4—((1-oxophosphorinan-1-yl)methyl)phenyl)-2,3-dihydro-1-benzoxepine-4-carboxamide]
180 to 186 °C | CSc1ccc(-c2ccc3c(c2)C=C(C(=O)Nc2ccc(CN(C)C4CCOCC4)cc2)CCO3)cc1 [Compound 226, N-[4-[N-methyl-N-(tetrahydropyran-4-yl)aminomethyl]-phenyl]-7—(4-methylthiophenyl)-2,3-dihydro-1-benzoxepine-4-carboxamide]
119 to 122 °C | CCOCCCN(C)Cc1ccc(NC(=O)C2=Cc3cc(-c4ccc(C)cc4)ccc3OCC2)cc1 [Compound 312, N-(4-((N-(3-ethoxypropyl)-N-methylamino)methyl)phenyl)-7-(4-methylphenyl)-2,3-dihydro-1-benzoxepine-4-carboxamide]
